Literature values in US20250049818A1, “PRENATAL SUPPLEMENT COMPOSITIONS FOR INCREASING BREASTMILK MICRONUTRIENT LEVELS” (SOCIÉTÉ DES PRODUITS NESTLÉ S.A., priority 2021, published 2025).
Like-named read-outs stand apart in the source and are kept apart here.

Assays:
[1] = daily supplementation during pregnancy only, zinc 30 mg
[2] = children of developing world, meta-analysis
[3] = 10 mg/day for 120 days, Indian infants aged 6-35 months
[4] = 5 mg/day, Indian infants small for gestational age

Compound | human milk zinc concentration ([1]; 1 month postpartum) | human milk zinc concentration ([1]; 6 months postpartum) | reduced diarrhoea [2] [%] | reduction in incidence of acute lower respiratory infections [3] [%] | reduction in mortality [4] [%] | mean vitamin D activity (VDA) of human milk (two months post-partum, 1,000 IU group) [IU/L] | mean vitamin D activity (VDA) of human milk (two months post-partum, 2,000 IU group) [IU/L] | mean vitamin D activity (VDA) of human milk (two weeks post-partum, 1,000 IU daily oral, 27-36 weeks of gestation) [IU/L] | mean vitamin D activity (VDA) of human milk (two weeks post-partum, 2,000 IU daily oral, 27-36 weeks of gestation) [IU/L]
[Zn] [zinc] | 49.3 (31.3-62.1) μmol/L | 15.3 (11.8-27.2) μmol/L | 18 | 45 | 68 | – | – | – | –
C=C1CC[C@H](O)C/C1=C/C=C1\CCC[C@]2(C)[C@@H]([C@H](C)CCCC(C)C)CC[C@@H]12 [vitamin D3, cholecalciferol] | – | – | – | – | – | 43 | 58 | 51 | 74
